According to ChEMBL document CHEMBL1155515, “Discovery of novel selective norepinephrine reuptake inhibitors: 4-[3-aryl-2,2-dioxido-2,1,3-benzothiadiazol-1(3H)-yl]-1-(methylamino)butan-2-ols (WYE-103231)” (J Med Chem, 2010):

What was measured:
Format in all cases: ADME, organism-based
[1] = Cmax in intact female rat at 5 mg/kg, po; parameters: dose 5 mg/kg, route oral; settings: in vivo
[2] = Volume of distribution at steady state in ovariectomised female rat at 2 mg/kg, iv; parameters: dose 2 mg/kg, route intravenous; settings: in vivo, read-out: Vdss
[3] = Oral bioavailability in ovariectomised female rat at 5 mg/kg; settings: in vivo
[4] = Tmax in male rat at 10 mg/kg, po; parameters: dose 10 mg/kg, route oral; settings: in vivo
[5] = Cmax in ovariectomised female rat at 5 mg/kg, po; parameters: dose 5 mg/kg, route oral; settings: in vivo
[6] = Volume of distribution at steady state in male rat at 2 mg/kg, iv; parameters: dose 2 mg/kg, route intravenous; settings: in vivo, read-out: Vdss
[7] = AUC (0 to infinity) in male rat at 10 mg/kg, po; parameters: time infinity, dose 10 mg/kg, route oral; settings: plasma
[8] = Volume of distribution at steady state in intact female rat at 2 mg/kg, iv; parameters: dose 2 mg/kg, route intravenous; settings: in vivo, read-out: Vdss
[9] = Oral bioavailability in intact female rat at 5 mg/kg; settings: in vivo
[10] = Tmax in ovariectomised female rat at 5 mg/kg, po; parameters: dose 5 mg/kg, route oral; settings: in vivo
[11] = Cmax in male rat at 10 mg/kg, po; parameters: dose 10 mg/kg, route oral; settings: in vivo
[12] = AUC (0 to infinity) in male rat at 2 mg/kg, iv; parameters: time infinity, dose 2 mg/kg, route intravenous; settings: plasma
[13] = AUC (0 to infinity) in ovariectomised female rat at 2 mg/kg, iv; parameters: time infinity, dose 2 mg/kg, route intravenous; settings: plasma
[14] = Oral bioavailability in male rat at 10 mg/kg; settings: in vivo
[15] = AUC (0 to infinity) in ovariectomised female rat at 5 mg/kg, po; parameters: dose 5 mg/kg, route oral, time infinity; settings: plasma
[16] = Tmax in intact female rat at 5 mg/kg, po; parameters: dose 5 mg/kg, route oral; settings: in vivo
[17] = Ratio of drug level from brain to plasma in ovariectomised female rat; settings: read-out: BPR
[18] = AUC (0 to infinity) in intact female rat at 2 mg/kg, iv; parameters: time infinity, dose 2 mg/kg, route intravenous; settings: plasma
[19] = AUC (0 to infinity) in intact female rat at 5 mg/kg, po; parameters: time infinity, dose 5 mg/kg, route oral; settings: plasma

- Cmax [1]: 135 ng/mL
- Vd [2]: 25.3 L/kg
- bioavailability [3]: 95.2%
- Tmax [4]: 1.38 h
- Cmax [5]: 125 ng/mL
- Vd [6]: 36.3 L/kg
- AUC(0-inf) [7]: 1040 ng·h/mL
- Vd [8]: 11.3 L/kg
- bioavailability [9]: 41.3%
- Tmax [10]: 1.63 h
- Cmax [11]: 154 ng/mL
- AUC(0-inf) [12]: 199 ng·h/mL
- AUC(0-inf) [13]: 505 ng·h/mL
- bioavailability [14]: 100%
- AUC(0-inf) [15]: 1200 ng·h/mL
- Tmax [16]: 33.6 min
- Kp [17]: 3.6
- AUC(0-inf) [18]: 929 ng·h/mL
- AUC(0-inf) [19]: 959 ng·h/mL
Compound: CNC[C@@H](O)CCN1c2ccccc2N(c2ccccc2F)S1(=O)=O
